Literature values, collected in US10399716B2, “Personal care compositions and hangers” (The Procter & Gamble Company, priority 2014, dated 2019).

Going from `CCCCCCC(O)CO` (stereo not drawn) [caprylyl glycol] to `C=CCCCCCCCCC(=O)O` [Undecylenic Acid], the “Log (water Solubility in mol/L)” value falls from −3.08 log mol/L to −3.15 log mol/L.

First: OCCc1ccccc1 [phenethyl alcohol]
Second: OCc1ccccc1 [benzyl Alcohol]
The “Log (water Solubility in mol/L)” value of the first is lower: −0.83 log mol/L for the first, −0.47 log mol/L for the second.

Compared with `O=C(O)c1ccccc1O` [Salicylic acid], `OCCOc1ccccc1` [Phenoxyethanol] is higher in “Log (water Solubility in mol/L)” value: −1.41 log mol/L for the first, −0.64 log mol/L for the second.

First: Oc1cc(Cl)ccc1Oc1ccc(Cl)cc1Cl [Triclosan]
Second: CCOC(=O)c1ccc(O)cc1 [ethyl paraben]
The “Log (water Solubility in mol/L)” value of the first is lower: −2.46 log mol/L for the first, −1.91 log mol/L for the second.

For `C/C=C/C=C/C(=O)O` [sorbic acid], the “Log (water Solubility in mol/L)” value is listed as −0.33 log mol/L.
